From ChEMBL document CHEMBL1201862, “PubChem BioAssay data set” (2004)
Calls of active or inactive are those of the source.

Assays:
[1] = Luminescence Cell-Based Dose Confirmation HTS to Identify Activators of 5'UTR Stem-Loop Driven Alpha-Synuclein mRNA Translation in H4 Neuroglioblastoma Cells. [Related pubchem assays: 1829 (Project Summary), 1814 (Primary HTS)]; format: functional
[2] = Luminescence Cell-Based Dose Response HTS to Identify Activators of Luciferase Translation or Activity in H4 […] Cells. [Related pubchem assays: 1829 (Project Summary), 1814 (Primary HTS)]; format: functional
[3] = tested on: H4; test: Luminescence Cell-Based Dose Response HTS to Identify Activators of 5'UTR Stem-Loop Driven Prion Protein mRNA Translation in H4 Neuroglioblastoma Cells. [Related pubchem assays: 1829 (Project Summary), 1814 (Primary HTS)]; format: functional; conditions: Homo sapiens
[4] = target: Cytochrome P450 2C9 (Homo sapiens, UniProt P11712)
[5] = target: T1, Cytochrome P450 1A2 (Homo sapiens, UniProt P05177);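 further: PubChem cytochrome P450 panel assay, CYP1A2 panel member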
T1 sequence (P05177 whole entry): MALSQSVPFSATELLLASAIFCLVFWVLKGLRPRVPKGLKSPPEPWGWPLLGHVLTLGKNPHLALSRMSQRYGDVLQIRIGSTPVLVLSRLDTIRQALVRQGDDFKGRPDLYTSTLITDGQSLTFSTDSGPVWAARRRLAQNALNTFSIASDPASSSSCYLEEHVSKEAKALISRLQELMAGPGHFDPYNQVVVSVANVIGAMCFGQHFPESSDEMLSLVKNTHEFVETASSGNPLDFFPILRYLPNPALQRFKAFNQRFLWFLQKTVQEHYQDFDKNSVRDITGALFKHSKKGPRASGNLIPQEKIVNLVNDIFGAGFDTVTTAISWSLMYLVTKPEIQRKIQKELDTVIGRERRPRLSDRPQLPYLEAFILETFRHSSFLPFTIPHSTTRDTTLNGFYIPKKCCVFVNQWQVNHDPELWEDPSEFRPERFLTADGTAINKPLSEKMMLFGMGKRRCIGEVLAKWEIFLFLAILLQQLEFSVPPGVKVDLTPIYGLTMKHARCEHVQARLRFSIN

[6] = target: Cytochrome P450 3A4 (Homo sapiens, UniProt P08684);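 further: CYP3A4 tested as one member of a cytochrome P450 panel screen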
[7] = target: T2, Carboxy-terminal domain RNA polymerase II polypeptide A small phosphatase 1 (Homo sapiens, UniProt Q9GZU7); test: CTDSP1 inhibitors, concentration-response, biochemical, absorbance readout, ultra-high-throughput screen actives (AID 540297); format: functional
T2 sequence (Q9GZU7 whole entry): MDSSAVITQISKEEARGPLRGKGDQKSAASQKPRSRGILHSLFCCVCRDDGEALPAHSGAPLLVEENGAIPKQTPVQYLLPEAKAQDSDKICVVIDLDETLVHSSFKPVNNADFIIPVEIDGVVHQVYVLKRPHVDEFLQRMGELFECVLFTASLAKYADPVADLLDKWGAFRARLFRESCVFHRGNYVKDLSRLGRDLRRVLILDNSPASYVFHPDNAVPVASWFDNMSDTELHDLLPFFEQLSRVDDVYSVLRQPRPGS

[8] = target: T3, Rac GTPase-activating protein 1 (Homo sapiens, UniProt Q9H0H5); test: blockers of MgcRacGAP-driven Rac1 GTP hydrolysis – biochemical, ADP Hunter fluorescence, primary and confirmatory, confirmation (AID 624330); format: functional
T3 sequence (Q9H0H5 whole entry): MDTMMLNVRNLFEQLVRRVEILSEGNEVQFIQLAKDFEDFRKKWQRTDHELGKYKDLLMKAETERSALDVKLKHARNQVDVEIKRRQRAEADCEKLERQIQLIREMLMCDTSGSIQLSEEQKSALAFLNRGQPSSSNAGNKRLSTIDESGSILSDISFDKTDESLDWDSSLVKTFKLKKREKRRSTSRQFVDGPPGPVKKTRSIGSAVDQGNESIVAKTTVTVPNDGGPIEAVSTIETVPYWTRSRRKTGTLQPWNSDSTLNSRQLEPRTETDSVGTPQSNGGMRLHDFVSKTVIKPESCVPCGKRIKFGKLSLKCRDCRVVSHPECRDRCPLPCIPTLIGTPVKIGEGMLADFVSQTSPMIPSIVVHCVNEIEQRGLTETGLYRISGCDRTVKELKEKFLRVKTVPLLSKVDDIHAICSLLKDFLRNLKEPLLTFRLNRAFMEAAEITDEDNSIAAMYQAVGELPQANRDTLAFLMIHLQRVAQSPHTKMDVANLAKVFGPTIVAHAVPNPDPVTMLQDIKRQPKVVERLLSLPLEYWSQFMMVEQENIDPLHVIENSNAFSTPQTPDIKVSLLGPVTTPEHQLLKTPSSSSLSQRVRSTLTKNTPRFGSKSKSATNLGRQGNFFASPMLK

[9] = target: Cytochrome P450 2C19 (Homo sapiens, UniProt P33261); test: Cytochrome panel assay with activity outcomes. Panel member name: p450-cyp2c19 Compounds with AC50 equal or less than 10 uM are considered active; format: functional
[10] = reduction of Shn3 3'UTR-driven luciferase in osteoblasts – cell-based, Clone20 osteoblasts, firefly luciferase, cherry-picked, dose response (AID 624132); format: functional;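 further: firefly luciferase luminescence from reporter carrying the Shn3 3'UTR in osteoblasts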
[11] = loss of viability in HepG2 cells – cell-based, CellTiter-Glo, cherry-picked, cytotoxicity control for Shn3 inhibitor project, dose response (AID 624134); format: functional
[12] = target: Cytochrome P450 2D6 (Homo sapiens, UniProt P10635);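 further: CYP2D6 member of a cytochrome P450 panel assay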
Chain of Cytochrome P450 2D6 (P10635 whole entry): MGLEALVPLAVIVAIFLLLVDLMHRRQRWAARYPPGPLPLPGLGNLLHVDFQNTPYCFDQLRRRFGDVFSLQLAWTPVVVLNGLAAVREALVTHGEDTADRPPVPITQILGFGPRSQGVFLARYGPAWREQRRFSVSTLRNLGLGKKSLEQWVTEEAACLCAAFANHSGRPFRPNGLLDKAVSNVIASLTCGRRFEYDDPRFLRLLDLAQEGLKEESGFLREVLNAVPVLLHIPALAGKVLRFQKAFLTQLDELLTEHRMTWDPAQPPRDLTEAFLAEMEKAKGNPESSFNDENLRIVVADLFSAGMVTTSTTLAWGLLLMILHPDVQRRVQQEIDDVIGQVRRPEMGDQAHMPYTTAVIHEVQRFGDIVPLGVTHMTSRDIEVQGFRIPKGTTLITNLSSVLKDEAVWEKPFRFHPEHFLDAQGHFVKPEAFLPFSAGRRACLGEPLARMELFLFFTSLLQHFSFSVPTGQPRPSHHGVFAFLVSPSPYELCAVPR

Chain of Cytochrome P450 3A4 (P08684 whole entry, the tested form may be a part): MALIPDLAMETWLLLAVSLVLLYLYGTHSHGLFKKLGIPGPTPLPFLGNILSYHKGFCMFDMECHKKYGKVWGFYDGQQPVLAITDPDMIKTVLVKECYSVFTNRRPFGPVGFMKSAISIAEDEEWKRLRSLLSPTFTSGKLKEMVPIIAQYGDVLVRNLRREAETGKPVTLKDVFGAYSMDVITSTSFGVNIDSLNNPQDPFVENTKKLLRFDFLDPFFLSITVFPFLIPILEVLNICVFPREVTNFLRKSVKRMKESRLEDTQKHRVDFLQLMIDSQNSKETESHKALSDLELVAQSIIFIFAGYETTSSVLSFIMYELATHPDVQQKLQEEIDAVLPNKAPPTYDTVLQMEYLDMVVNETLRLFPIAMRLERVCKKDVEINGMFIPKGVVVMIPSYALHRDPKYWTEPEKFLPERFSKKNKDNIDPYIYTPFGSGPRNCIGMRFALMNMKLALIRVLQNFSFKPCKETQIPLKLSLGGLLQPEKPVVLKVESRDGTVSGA
Chain of Cytochrome P450 2C9 (P11712 whole entry): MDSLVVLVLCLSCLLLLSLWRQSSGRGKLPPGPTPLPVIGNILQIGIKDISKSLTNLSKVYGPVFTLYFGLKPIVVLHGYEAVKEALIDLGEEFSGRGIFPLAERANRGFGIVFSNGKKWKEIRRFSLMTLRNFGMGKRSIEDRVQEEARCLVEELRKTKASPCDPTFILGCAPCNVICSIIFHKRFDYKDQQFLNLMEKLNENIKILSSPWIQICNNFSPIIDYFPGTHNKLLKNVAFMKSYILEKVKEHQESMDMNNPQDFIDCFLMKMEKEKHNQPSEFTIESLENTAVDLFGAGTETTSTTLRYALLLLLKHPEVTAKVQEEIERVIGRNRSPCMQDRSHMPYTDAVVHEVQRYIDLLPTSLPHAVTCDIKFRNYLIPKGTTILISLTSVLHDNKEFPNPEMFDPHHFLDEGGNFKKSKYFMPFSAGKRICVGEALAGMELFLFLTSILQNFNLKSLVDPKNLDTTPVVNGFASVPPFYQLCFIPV
Chain of Cytochrome P450 2C19 (P33261 whole entry): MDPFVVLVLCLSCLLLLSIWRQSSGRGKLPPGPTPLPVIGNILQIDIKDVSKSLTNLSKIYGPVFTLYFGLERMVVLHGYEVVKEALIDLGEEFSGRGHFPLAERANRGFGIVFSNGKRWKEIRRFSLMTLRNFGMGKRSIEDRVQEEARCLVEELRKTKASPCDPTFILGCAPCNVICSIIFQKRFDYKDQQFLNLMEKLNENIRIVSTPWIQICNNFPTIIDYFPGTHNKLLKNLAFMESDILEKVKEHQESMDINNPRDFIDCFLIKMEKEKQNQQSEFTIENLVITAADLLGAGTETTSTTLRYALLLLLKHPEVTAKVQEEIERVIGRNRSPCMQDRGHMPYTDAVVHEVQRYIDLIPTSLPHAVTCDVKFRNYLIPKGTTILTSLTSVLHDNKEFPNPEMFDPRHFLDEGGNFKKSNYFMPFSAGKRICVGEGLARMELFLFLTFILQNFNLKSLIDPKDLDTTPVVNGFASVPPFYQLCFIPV

In the case of `CCCCc1nc2cc(C(=O)N(C)C3CCOCC3)ccc2o1`, the EC50 [1] was 1.36 µM (active), the EC50 [2] was 15 µM (active) and the EC50 [3] was 0.399 µM (active).

For `COc1ccc(NC(=O)Cn2nnc(-c3ccccc3NC(=O)c3cccs3)n2)cc1`, the EC50 [1] was > 120 µM (not active), the EC50 [2] was 3.68 µM (active) and the EC50 [3] was > 120 µM (not active).

With `C=CC[C@@H]1C=C[C@H](O/N=C(\C)CCN2CCc3nc(-c4ccccc4)c(-c4ccccc4)cc3C2)[C@H](CO)O1` the AC50 [4] was 0.0794 µM (inconclusive).

In the case of `CCOC(=O)c1cnn(-c2ncnc3c2cnn3C)c1N`, the EC50 [1] was 31.6 µM (active), the EC50 [2] was 10.9 µM (active) and the EC50 [3] was 90.5 µM (active).

With `COc1ccc(-c2nc3cnc(OC)nc3n(Cc3cccc(OC)c3)c2=O)cc1` the AC50 [4] was 3.16 µM (inconclusive).

With `Cc1nc(SCC(=O)NCCc2ccccc2)c2oc3ccccc3c2n1` the AC50 [5] was 0.562 µM (inconclusive), the AC50 [6] was 39.8 µM (inconclusive) and the AC50 [4] was 0.398 µM (inconclusive).

In the case of `COc1ccc(/C=C2\C(=O)NC(=S)N(C)C2=O)cc1C`, the IC50 [7] was 0.632 µM (active) and the IC50 [8] was 21.4 µM (active).

In the case of `Cc1sc2ncnc(N3CCC(C(=O)Nc4nc5ccc(Cl)cc5s4)CC3)c2c1C`, the EC50 [1] was 8.58 µM (active), the EC50 [2] was 19.2 µM (active) and the EC50 [3] was 28.5 µM (active).

With `CC(=O)Nc1ccc2[nH]c(C3CCCCC3)nc2c1` the AC50 [9] was “inconclusive” and the AC50 [4] was 17.8 µM (inconclusive).

In the case of `COc1ccc(NC(=O)c2c3c(nc4ccccc24)CCC3)cc1S(=O)(=O)N1CCOCC1`, the IC50 [7] was 3.75 µM (active).

For `Cc1cc(C=C(C#N)C#N)c(C)n1-c1ccccc1`, the AC50 [5] was 2.24 µM (inconclusive) and the AC50 [4] was 1.12 µM (inconclusive).

With `COc1ccc(Oc2ncc3nc(-c4cccc(C#N)c4)c(=O)n(Cc4cccc(OC)c4)c3n2)cc1` the AC50 [4] was 2.51 µM (inconclusive).

In the case of `O=C(NN=C1CCCC1)c1cc(O)cc(O)c1`, the IC50 [7] was 10.2 µM (active).

In the case of `COc1cccc(NC(=O)CN(C)C(=O)c2cc(-c3ccco3)nc3ccccc23)c1`, the IC50 [7] was 6.41 µM (active).

With `CCn1c(O)cc(=O)nc1SCC(=O)Nc1ccc(C)cc1` the EC50 [1] was > 120 µM (not active), the EC50 [2] was > 120 µM (not active) and the EC50 [3] was > 120 µM (not active).

For `CC(C)(C)c1nc(NCCN2CCOCC2)c2nnn(Cc3ccccc3Cl)c2n1`, the AC50 [10] was 8.85 µM (active) and the AC50 [11] was 56.5 µM (active).

With `CCN1C(=O)/C(=C\N2CCCCCC2)SC1=S` the EC50 [1] was > 120 µM (not active), the EC50 [2] was 7.47 µM (active) and the EC50 [3] was 12.8 µM (active).

For `Sc1nnc(Cn2c(-c3ccccn3)nc3ccccc32)n1-c1ccc2c(c1)OCCO2`, the EC50 [1] was 12.5 µM (active), the EC50 [2] was 14.9 µM (active) and the EC50 [3] was 29.5 µM (active).

For `O=S(=O)(Nc1ccc2[nH]c(-c3ccco3)nc2c1)c1ccccc1`, the EC50 [1] was 14.8 µM (active), the EC50 [2] was 36.8 µM (active) and the EC50 [3] was 17.3 µM (active).

In the case of `Cc1cccc(C(=O)NNC(=O)c2ccc(-c3ccccc3)cc2)c1`, the IC50 [7] was 5.8 µM (active).

In the case of `Cc1c(N2C(=O)/C(=C3/C(=O)N(C)c4ccccc43)SC2=S)c(=O)n(-c2ccccc2)n1C`, the AC50 [12] was 7.94 µM (inconclusive), the AC50 [5] was 25.1 µM (inconclusive) and the AC50 [6] was 15.8 µM (inconclusive). For the same molecule, the AC50 [4] was 12.6 µM (inconclusive).

In the case of `Cc1ccc(C(=O)NCC2CCCO2)cc1N1CCCC1=O` (stereo not drawn), the AC50 [9] was “inconclusive” and the AC50 [4] was 2.82 µM (inconclusive).

In the case of `COc1ccc(-n2c(=O)c(C)nc3cnc(Oc4cccc(Cl)c4)nc32)cc1`, the AC50 ([9]; read-out: AC50) was 39.8 µM (inconclusive), the AC50 [12] was 25.1 µM (inconclusive) and the AC50 [6] was 3.16 µM (inconclusive). For the same molecule, the AC50 [4] was 25.1 µM (inconclusive).

With `Cc1nc2ccccn2c1C(=O)C1=C(O)C(=O)N(CCN2CCOCC2)C1c1cccnc1` (stereo not drawn) the AC50 [4] was 17.8 µM (inconclusive).

For `COc1ccc(-n2nc(C(=O)NCC(=O)N3CCN(c4ccccc4F)CC3)c3ccccc3c2=O)cc1`, the EC50 [1] was 27.8 µM (active), the EC50 [2] was 8.08 µM (active) and the EC50 [3] was 95.7 µM (active).

With `Cc1ccc(NC(=O)C2CCC(C(C)(C)C)CC2)cc1S(=O)(=O)N1CCOCC1` (stereo not drawn) the AC50 [10] was 12.2 µM (active) and the AC50 [11] was 53.1 µM (active).
